Measurements published in patent US20030108629A1, “Compositions and methods for prostate and kidney health and disorders, an herbal preparation” (priority 2001, published 2003).

Assay: Case report: incontinence person with enlarged prostate
Format: in vivo, human
Conditions: prescribed for enlarged prostate
Text: The 9-herb composition and Incontinence. Person diagnosed with having an enlarged prostate suffered from frequent-urination problems including increased daily frequency and reduced volume. They had the urge to urinate every two hours and the amount was only a few drops. Their symptoms were attributed to old age. […] They are able to urinate what they consider a normal amount of urine in a steady stream as opposed to the dribbling they experienced prior to taking the 9-herb composition. […] Because they are sleeping better, they have more energy throughout the day.

## CC(C)(C)NC(=O)[C@H]1CC[C@H]2[C@@H]3CC[C@H]4NC(=O)C=C[C@]4(C)[C@H]3CC[C@]12C [PROSCAR]
  effect on urination problem: did not alleviate the urination problem
